The text below walks through data of PubChem BioAssay (NCI).

Where “and” joins values, the source holds several entries; their conditions need not be identical. Equal entries are not always repeated.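 96-well plates; 48 h exposure; 5 concentrations. Endpoints by linear interpolation between flanking doses. Not reached: highest tested concentration assigned. GI50 is the concentration that inhibits growth by half. TGI: total growth inhibition.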

The first experiment concerns SK-OV-3 ovarian. As to the kind of experiment: NCI anticancer screen, dose series, 48 h.
Consider `COc1ccc(/C=N/N=C(\N)NO)c(O)c1`, for which the TGI is more than 10 µM.

As to `COC(=O)C1=CC(=O)OC1(OO)c1ccccc1` (stereo not given), the TGI is more than 100 µM.

The compound `O=C1NC(N/N=C/C(O)C(O)C(O)CO)=N/C1=C\c1ccco1` (stereo not given) registered a TGI of more than 100 µM.

`COc1cc(CNc2ccc(SC)cc2)cc(OC)c1OC`: the GI50 is 15.4 µM and 5.05 µM; the TGI is 64.2 µM and 44.6 µM.

As to `CN(NC(=O)c1cccs1)C1=NCCCN1`, the TGI was more than 100 µM.

Take `CCCCCC(=O)NC(=S)Nc1nn[nH]n1`: the TGI is more than 100 µM.

In turn, `CC1=NN(c2ccc(S(=O)(=O)O)cc2)C2(C1)SCC(=O)N2c1nc2ccccc2s1` (stereo not given) gave a TGI of more than 100 µM.

In turn, `C[C@H](N)C(=O)Nc1ccc(-c2nc3ccccc3s2)cc1` displayed a TGI of 57.2 µM.

Take `CC(=O)O[C@H]1C#C/C=C\C#CC[C@@H]2C(=O)N[C@@H]12`: the TGI is more than 100 µM.

In the case of `Cc1ccc2c(c1)[nH]c1cc(C(F)(F)F)ccc1[p+]2=O` (stereo not given), the TGI is more than 100 µM.

For the compound `CN(O)C(=O)c1cccc(Cl)c1`, the TGI was more than 100 µM.

Consider `CCOP(=O)(OCC)c1c(C(=O)OC)cc(=O)[nH]c1-c1ccc(C)cc1`, for which the TGI turned out to be 49.4 µM.

For `COC(=O)C1=C(C(=O)OC)SC2(S1)C1=C(CCCC1)SC(C(=O)OC)=C2C(=O)OC`, the TGI worked out at 28.1 µM.

Compound `C1CCC2C(C1)CCCC2NC1=NCCO1` (stereo not given) had a TGI of more than 100 µM.

Turning to `CCC1(C)N=C(c2cnccn2)NN1c1ccc(Cl)cc1` (stereo not given), the TGI was more than 100 µM.

`C/C=C/C(O)P1(=O)N(Cc2ccccc2)[C@@H]2CCCC[C@H]2N1Cc1ccccc1` (stereo not given in full): the TGI is more than 25 µM.

For a further experiment, the system named is T-47D breast. The experiment is described as follows: NCI anticancer screen, dose series, 48 h.
The compound `NC(=O)NNC(=O)c1nc[nH]c1[N+](=O)[O-]` registered a TGI of more than 100 µM.

`O=c1[nH]/c(=C/c2ccc(OCc3ccccc3)cn2)c(=O)[nH]/c1=C/c1ccc(O)cc1` came in with a TGI of more than 63.8 µM.

Regarding `N#C/C(=C\n1ccc(=O)[nH]c1=S)C(N)=O`, the TGI is more than 100 µM.

The compound `Cc1ccc(/C(O)=C/C(=O)C(=O)/C=C(\O)c2ccc(C)cc2C)c(C)c1` had a TGI of 4.46 µM.

In turn, `Cc1ccc([C@H]2CC(=O)C[C@H](c3ccc(C)cc3)C23C(=O)c2ccccc2C3=O)cc1` yielded a TGI of more than 100 µM.

The compound `O=c1c2ncn(COCCCl)c2n(-c2ccccc2)c(=S)n1-c1ccccc1` showed a TGI of more than 100 µM.

In the case of `O=C(O)c1ccc(S(=O)(=O)c2ccccc2[N+](=O)[O-])cc1`, the TGI is more than 10 µM.

Compound `COc1ccc(/C=N/N=C(\N)NO)c(O)c1` came in with a TGI of more than 10 µM.

`COC(=O)C1=CC(=O)OC1(OO)c1ccccc1` (stereo not given) yielded a TGI of more than 100 µM.

For the compound `O=C1NC(N/N=C/C(O)C(O)C(O)CO)=N/C1=C\c1ccco1` (stereo not given), the TGI is more than 100 µM.

Regarding `COc1cc(CNc2ccc(SC)cc2)cc(OC)c1OC`, the GI50 was 24.7 µM and 7.05 µM; the TGI was > 100 µM and 69.8 µM.

The compound `CN(NC(=O)c1cccs1)C1=NCCCN1` yielded a TGI of more than 100 µM.

`CCCCCC(=O)NC(=S)Nc1nn[nH]n1` yielded a TGI of more than 100 µM.

On to `CC1=NN(c2ccc(S(=O)(=O)O)cc2)C2(C1)SCC(=O)N2c1nc2ccccc2s1` (stereo not given), for which the TGI was more than 100 µM.

In turn, `C[C@H](N)C(=O)Nc1ccc(-c2nc3ccccc3s2)cc1` showed a TGI of 36 µM.

`CC(=O)O[C@H]1C#C/C=C\C#CC[C@@H]2C(=O)N[C@@H]12` yielded a TGI of more than 100 µM.

As for `Cc1ccc2c(c1)[nH]c1cc(C(F)(F)F)ccc1[p+]2=O` (stereo not given), the TGI is more than 100 µM.

`CN(O)C(=O)c1cccc(Cl)c1` had a TGI of more than 100 µM.

On to `CCOP(=O)(OCC)c1c(C(=O)OC)cc(=O)[nH]c1-c1ccc(C)cc1`, for which the TGI was determined as 18.1 µM.

In turn, `COC(=O)C1=C(C(=O)OC)SC2(S1)C1=C(CCCC1)SC(C(=O)OC)=C2C(=O)OC` returned a TGI of 13.5 µM.

The compound `C1CCC2C(C1)CCCC2NC1=NCCO1` (stereo not given) showed a TGI of more than 100 µM.

As for `CCC1(C)N=C(c2cnccn2)NN1c1ccc(Cl)cc1` (stereo not given), the TGI was found to be 74.5 µM.

With `C/C=C/C(O)P1(=O)N(Cc2ccccc2)[C@@H]2CCCC[C@H]2N1Cc1ccccc1` (stereo not given in full), the TGI is more than 25 µM.

The next experiment relates to UACC-257 melanoma. The experiment is described as follows: NCI anticancer screen, dose series, 48 h.
Regarding `NC(=O)NNC(=O)c1nc[nH]c1[N+](=O)[O-]`, the TGI is more than 100 µM.

In the case of `O=c1[nH]/c(=C/c2ccc(OCc3ccccc3)cn2)c(=O)[nH]/c1=C/c1ccc(O)cc1`, the TGI is more than 100 µM.

On to `N#C/C(=C\n1ccc(=O)[nH]c1=S)C(N)=O`, for which the TGI is more than 100 µM.

For `Cc1ccc(/C(O)=C/C(=O)C(=O)/C=C(\O)c2ccc(C)cc2C)c(C)c1`, the TGI came to 3.21 µM.

`Cc1ccc([C@H]2CC(=O)C[C@H](c3ccc(C)cc3)C23C(=O)c2ccccc2C3=O)cc1` had a TGI of 49.7 µM.

`O=c1c2ncn(COCCCl)c2n(-c2ccccc2)c(=S)n1-c1ccccc1` came in with a TGI of more than 100 µM.

In the case of `O=C(O)c1ccc(S(=O)(=O)c2ccccc2[N+](=O)[O-])cc1`, the TGI was more than 10 µM.

Turning to `COc1ccc(/C=N/N=C(\N)NO)c(O)c1`, the TGI was more than 10 µM.

Take `COC(=O)C1=CC(=O)OC1(OO)c1ccccc1` (stereo not given): the TGI is more than 100 µM.

`O=C1NC(N/N=C/C(O)C(O)C(O)CO)=N/C1=C\c1ccco1` (stereo not given) yielded a TGI of more than 100 µM.

Take `COc1cc(CNc2ccc(SC)cc2)cc(OC)c1OC`: the GI50 is 24.9 µM and 9.7 µM; the TGI is > 91.7 µM and 41.8 µM.

The compound `CN(NC(=O)c1cccs1)C1=NCCCN1` had a TGI of more than 100 µM.

Compound `CCCCCC(=O)NC(=S)Nc1nn[nH]n1` returned a TGI of more than 100 µM.

Turning to `CC1=NN(c2ccc(S(=O)(=O)O)cc2)C2(C1)SCC(=O)N2c1nc2ccccc2s1` (stereo not given), the TGI is more than 100 µM.

The compound `C[C@H](N)C(=O)Nc1ccc(-c2nc3ccccc3s2)cc1` yielded a TGI of more than 100 µM.

`CC(=O)O[C@H]1C#C/C=C\C#CC[C@@H]2C(=O)N[C@@H]12`: the TGI was more than 100 µM.

`Cc1ccc2c(c1)[nH]c1cc(C(F)(F)F)ccc1[p+]2=O` (stereo not given): the TGI was 66 µM.

`CN(O)C(=O)c1cccc(Cl)c1` registered a TGI of more than 100 µM.

The compound `CCOP(=O)(OCC)c1c(C(=O)OC)cc(=O)[nH]c1-c1ccc(C)cc1` yielded a TGI of 30.1 µM.

`COC(=O)C1=C(C(=O)OC)SC2(S1)C1=C(CCCC1)SC(C(=O)OC)=C2C(=O)OC` yielded a TGI of 28.9 µM.

`C1CCC2C(C1)CCCC2NC1=NCCO1` (stereo not given) displayed a TGI of more than 100 µM.

Turning to `CCC1(C)N=C(c2cnccn2)NN1c1ccc(Cl)cc1` (stereo not given), the TGI was determined as 99.3 µM.

The compound `C/C=C/C(O)P1(=O)N(Cc2ccccc2)[C@@H]2CCCC[C@H]2N1Cc1ccccc1` (stereo not given in full) returned a TGI of more than 25 µM.
